From paper PMC7892644 (Cancer discovery, 2020)
Like-named read-outs stand apart in the source and are kept apart here.

What was measured:
[1] = test system: recombinant SOS1 and recombinant KRAS G12D; test: AlphaScreen protein-protein interaction assay, SOS1 and KRAS G12D; assay type: binding; conditions: KRAS-GDP, result in words
[2] = test system: recombinant SOS1 and recombinant KRAS G12C; test: AlphaScreen protein-protein interaction assay, SOS1 and KRAS G12C; assay type: binding; conditions: KRAS-GDP, result in words
[3] = test system: panel of 24 cell lines, including 18 KRAS-mutated cell lines; test: 2D proliferation assays across a panel of 24 cell lines; assay type: cell-based
[4] = test system: pERK levels in A375 melanoma cells (KRAS wild-type, BRAF V600E); test: pERK inhibition in A375 cells; assay type: cell-based; conditions: A375, 1 hour, 2D
[5] = test system: NCI-H520 cells (KRAS wild-type); test: 3D proliferation assay, NCI-H520; assay type: cell-based
[6] = test system: A375 cells (KRAS wild-type, BRAF V600E); test: 3D proliferation assay, A375; assay type: cell-based
[7] = test system: panel of 24 cell lines, including 18 KRAS-mutated cell lines; test: 3D proliferation assays across a panel of 24 cell lines; assay type: cell-based; conditions: for IC50: read-out: IC50, 3D proliferation
[8] = test system: primary smooth muscle cells; test: Proliferation of primary smooth muscle cells; assay type: cell-based; conditions: read-out: IC50, proliferation
[9] = test system: retinal pigment epithelial cells; test: Proliferation of retinal pigment epithelial cells; assay type: cell-based; conditions: Epithelial cell, read-out: IC50, proliferation
[10] = test system: KRAS Q61K mutant pancreatic PDX model; test: KRAS Q61K mutant pancreatic PDX model efficacy; assay type: in vivo, mice; conditions: BI-3406 50 mg/kg bid, trametinib 0.1 mg/kg bid, 5 days on/2 days off
[11] = test system: KRAS G12C-mutated MIA PaCa-2 xenografts; conditions: 12 or 50 mg/kg twice daily; p<0.005 vs vehicle control
[12] = test system: pERK levels in isogenic NCI-H23 cell lines; test: pERK levels in isogenic NCI-H23 cell lines
foreskin fibroblasts = test: cells; conditions: Fibroblast, read-out: IC50, proliferation

`C=CC(=O)N1CCN(c2ncnc3c(F)c(-c4c(O)cccc4F)c(Cl)cc23)CC1` [ARS-1620] was tested. Which “inhibition of SOS1 interaction with KRAS G12D” value [1] did it give?
The value was “no effect”.

What about the “inhibition of SOS1 interaction with KRAS G12C” value [2] of the same molecule?
The value was “able to interfere”.

For `CNCc1ccccc1-c1csc([C@@H](C)Nc2nc(C)nc3cc(OC)c(OC)cc23)c1` [BAY293], which “activity in 2D proliferation assays” value [3] is on record?
The value was “no activity”.

Which results are given for `COc1cc2nc(C)nc(N[C@H](C)c3cc(N)cc(C(F)(F)F)c3)c2cc1O[C@H]1CCOC1` [BI-3406]?
pERK modulation [4]: No pERK modulation; effect on 3D growth [5]: not appreciably affected; effect on 3D growth [6]: not appreciably affected; IC50 [7]: 0.009 to 0.22 µM; activity in 2D proliferation assays [3]: no activity; IC50 [8]: > 5 µM; IC50 [9]: > 5 µM; antitumor efficacy [10]: only weak efficacy; tumor growth inhibition [11]: prolonged dose-dependent tumor growth inhibition; modulation of pERK ([12]; NCI-H23 cells carrying the G12R variant): No modulation; inhibition of pERK levels ([12]; NCI-H23 cells carrying the Q61H oncogenic variant): weak inhibition; reduction of pERK levels ([12]; all KRAS variant isogenic NCI-H23 cell lines, independent of zygosity): ~50%

For `CC1(N)CCN(c2cnc(-c3cccc(Cl)c3Cl)c(N)n2)CC1` [SHP099], which “effect in 3D proliferation” value ([7]; Q61L/H and G12R KRAS mutant tumor cells) is on record?
The value was “no effects were detectable”.

And the IC50 ([7]; KRAS G12C, a subset of G12D cell lines, and one G12S cell line)?
Its IC50 is 0.167 to 0.79 µM.

And the IC50 ([7]; KRAS G13D and G12V cells)?
Its IC50 is 1.18 to 4.41 µM.

What about the “activity in 2D proliferation assays” value [3] of the same molecule?
The value was “no activity”.

Which results are given for `Cc1[nH]c2ccccc2c1CCNCc1ccc(/C=C/C(=O)NO)cc1` [panobinostat]?
effect on 3D growth [5]: responded; effect on 3D growth [6]: responded

For `CC(=O)Nc1cccc(-n2c(=O)n(C3CC3)c(=O)c3c(Nc4ccc(I)cc4F)n(C)c(=O)c(C)c32)c1` [trametinib], which IC50 [8] is on record?
Its IC50 is 0.843 µM.

And the IC50 [9]?
Its IC50 is 0.012 µM.

What about the IC50 (foreskin fibroblasts) of the same molecule?
The IC50 was 0.085 µM.
